Data taken from patent US20210323913A1, “SIGMA RECEPTOR BINDERS” (BOARD OF REGENTS, THE UNIVERSITY OF TEXAS SYSTEM, priority 2016, published 2021).
Where two headings read alike, the source gives them in different places.

Assays:
sigma 1 receptor = sigma 1 receptor (Homo sapiens, UniProt Q99720); test: Sigma 1 receptor radioligand competition binding; details: Table 1, 7-piperazinyl-tetrahydronaphthalene analogs; read-out: Ki (nM) Sig1R
sigma 2 receptor = sigma 2 receptor (Homo sapiens, UniProt Q5BJF2); test: Sigma 2 receptor radioligand competition binding
5-HT1A = molecular target: T1, 5-HT1A (Homo sapiens, UniProt P08908); test: Radioligand competition binding, 5-HT1A; details: Table 5; Cheng-Prusoff from best fit IC50
T1 sequence (P08908 1-422): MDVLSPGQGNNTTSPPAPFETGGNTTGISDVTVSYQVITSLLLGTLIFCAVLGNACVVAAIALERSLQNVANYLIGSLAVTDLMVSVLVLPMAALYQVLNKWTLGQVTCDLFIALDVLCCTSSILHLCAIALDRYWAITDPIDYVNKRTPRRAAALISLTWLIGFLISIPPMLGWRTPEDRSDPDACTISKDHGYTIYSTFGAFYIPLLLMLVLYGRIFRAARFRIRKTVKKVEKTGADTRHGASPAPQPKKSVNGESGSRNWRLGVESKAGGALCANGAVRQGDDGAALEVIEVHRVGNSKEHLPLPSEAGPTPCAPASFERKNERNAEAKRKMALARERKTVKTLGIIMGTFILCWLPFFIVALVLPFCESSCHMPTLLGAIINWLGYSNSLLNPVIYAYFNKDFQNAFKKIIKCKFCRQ

5-HT1B = 5-HT1B (Homo sapiens, UniProt P28222); test: Radioligand competition binding, 5-HT1B; details: Table 5; Cheng-Prusoff from best fit IC50
5-HT1D = 5-HT1D (Homo sapiens, UniProt P28221); test: Radioligand competition binding, 5-HT1D; details: Table 5; Cheng-Prusoff from best fit IC50
5-HT2A = 5-HT2A (Homo sapiens, UniProt P28223); test: Radioligand competition binding, 5-HT2A; details: Table 5; Cheng-Prusoff from best fit IC50
5-HT2B = 5-HT2B (Homo sapiens, UniProt P41595); test: Radioligand competition binding, 5-HT2B; details: Table 5; Cheng-Prusoff from best fit IC50
5-HT2C = molecular target: T2, 5-HT2C (Homo sapiens, UniProt P28335); test: Radioligand competition binding, 5-HT2C; details: Table 5; Cheng-Prusoff from best fit IC50
T2 sequence (P28335 33-458): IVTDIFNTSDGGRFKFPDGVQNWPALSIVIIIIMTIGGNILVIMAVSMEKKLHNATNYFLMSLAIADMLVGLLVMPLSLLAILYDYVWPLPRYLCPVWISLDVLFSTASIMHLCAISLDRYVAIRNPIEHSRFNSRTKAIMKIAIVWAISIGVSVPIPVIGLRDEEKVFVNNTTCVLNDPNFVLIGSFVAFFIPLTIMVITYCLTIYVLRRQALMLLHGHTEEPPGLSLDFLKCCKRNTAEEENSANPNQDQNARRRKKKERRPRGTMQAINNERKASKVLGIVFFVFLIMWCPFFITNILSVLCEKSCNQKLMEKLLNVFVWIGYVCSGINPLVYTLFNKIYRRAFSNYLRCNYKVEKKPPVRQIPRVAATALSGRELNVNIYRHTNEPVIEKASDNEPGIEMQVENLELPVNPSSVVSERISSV

5-ht5a = 5-ht5a (Homo sapiens, UniProt P47898); test: Radioligand competition binding, 5-ht5a; details: Table 5; Cheng-Prusoff from best fit IC50
5-HT6 = 5-HT6 (Homo sapiens, UniProt P50406); test: Radioligand competition binding, 5-HT6; details: Table 5; Cheng-Prusoff from best fit IC50
5-HT7 = 5-HT7 (Homo sapiens, UniProt P34969); test: Radioligand competition binding, 5-HT7; details: Table 5; Cheng-Prusoff from best fit IC50
D1 = D1 (Homo sapiens, UniProt P21728); test: Radioligand competition binding, D1; details: Table 5; Cheng-Prusoff from best fit IC50; some values marked (AVE)
D3 = D3 (Homo sapiens, UniProt P35462); test: Radioligand competition binding, D3; details: Table 5; Cheng-Prusoff from best fit IC50; one value marked (AVE)
D4 = molecular target: T3, D4 (Homo sapiens, UniProt P21917); test: Radioligand competition binding, D4; details: Table 5; Cheng-Prusoff from best fit IC50
T3 sequence (P21917 1-419): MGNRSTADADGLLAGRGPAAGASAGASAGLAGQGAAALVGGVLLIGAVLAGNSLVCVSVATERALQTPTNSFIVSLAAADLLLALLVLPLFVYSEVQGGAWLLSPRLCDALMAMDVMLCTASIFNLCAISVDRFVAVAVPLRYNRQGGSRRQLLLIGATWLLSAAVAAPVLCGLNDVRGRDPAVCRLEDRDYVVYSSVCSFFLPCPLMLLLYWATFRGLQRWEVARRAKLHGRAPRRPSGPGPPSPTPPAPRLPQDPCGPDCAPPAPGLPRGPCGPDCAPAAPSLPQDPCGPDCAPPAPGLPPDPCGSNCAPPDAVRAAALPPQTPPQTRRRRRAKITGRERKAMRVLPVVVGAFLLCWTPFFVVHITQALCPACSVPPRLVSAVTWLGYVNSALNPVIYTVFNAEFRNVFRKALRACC

H2 = H2 (Homo sapiens, UniProt P25021); test: Radioligand competition binding, H2; details: Table 5; Cheng-Prusoff from best fit IC50
KOR = KOR (Homo sapiens, UniProt P41145); test: Radioligand competition binding, KOR; details: Table 5; Cheng-Prusoff from best fit IC50; some values marked (AVE)
M4 = M4 (Homo sapiens, UniProt P08173); test: Radioligand competition binding, M4; details: Table 5; Cheng-Prusoff from best fit IC50; one value marked (AVE)
PBR = PBR (UniProt P16257); test: Radioligand competition binding, PBR; details: Table 5; Cheng-Prusoff from best fit IC50; one value marked (AVE)
SERT = SERT (Homo sapiens, UniProt P31645); test: Radioligand competition binding, SERT; details: Table 5; Cheng-Prusoff from best fit IC50

Structure (SMILES): CCN(CC)C(=O)CCN1CCN(c2ccc3c(c2)C(N(C)C(=O)OCc2ccccc2)CCC3)CC1 (stereo not drawn) [MDW-1-213, Benzyl (7-(4-(3-(diethylamino)-3-oxopropyl)piperazin-1-yl)-1,2,3,4-tetrahydronaphthalen-1-yl)(methyl)carbamate]
- Ki (sigma 1 receptor): 2100 nM
- Ki (sigma 2 receptor; Table 1, 7-piperazinyl-tetrahydronaphthalene analogs, read-out: Ki (nM) Sig2R): 7 nM
- Ki ratio Sig1R/Sig2R (sigma 2 receptor; Table 1, ratio of Sig1R Ki to Sig2R Ki): 292
- Ki (sigma 2 receptor; Table 5, Cheng-Prusoff from best fit IC50, read-out: Ki Sigma 2): 7.2 nM
- Ki (5-HT1A): 335 nM
- Ki (5-HT1B): 317 nM
- Ki (5-HT1D): 1360 nM
- Ki (5-HT2A): 957 nM
- Ki (5-HT2B): 692 nM
- Ki (5-HT2C): 2630 nM
- Ki (5-ht5a): 1880 nM
- Ki (5-HT6): 932 nM
- Ki (5-HT7): 828 nM
- Ki (D1): 4050 nM
- Ki (D3): 852 nM
- Ki (D4): 319 nM
- Ki (H2): 333 nM
- Ki (KOR): 5350 nM
- Ki (M4): 3280 nM
- Ki (PBR): 1200 nM
- Ki (SERT): > 10000 nM
